Laboratory results taken from patent publication US5306808A, “Peptide derivatives having vasodilating activity” (Takeda Chemical Industries, Ltd., priority 1991, dated 1994).
Where a SMILES comes first, the peptide text is derived from it. Bridges are numbered along the chain shown (N, C = ends). Where no end group is shown, it is not given here.

Experiments:
endothelin receptor = test: Assay of affinity for receptor (I125-ET-1 binding to porcine myocardial membrane fraction); settings: ET-1 = 100
Description: A membrane fraction prepared from the porcine heart was diluted to 0.15 mg/ml by using a buffer solution [PBS (pH 7.4) containing 0.5 mM CaCl2, 1.0 mM MgCl2, 0.02% NaN3, 0.1% BSA (fraction V, Sigma), 0.1 mM PMSF and 0.1 μg/ml pepstatin (binding buffer)] for assay, and 100 μl of the resulting suspension of the membrane fraction was poured into each assay tube to use for assay. To this suspension of the membrane fraction were added 2 μl of an endothelin-1 solution labeled with 5 μM radioactive iodine. Further, 3 μl of a test peptide solution was added thereto, followed by maintenance at a temperature of 25° C. for 1 hour. Then, the resulting suspension was diluted with 900 μl of the buffer solution for assay cooled with ice, and thereafter separated into a supernatant and a precipitate by centrifugation at 12,000×g for 10 minutes. Cell membranes and an endothelin receptor embedded therein were contained in the precipitate, and radioactive iodine-labeled endothelin combined with the receptor was also recovered in the precipitate. Accordingly, the amount of radioactive iodine-labeled endothelin combined with the endothelin receptor was determined by measuring the amount of radioactive iodine contained in the precipitate with a gamma-ray counter. Compounds in which the affinity for the endothelin receptor is high and the maximum constriction is not high are antagonists. Contrary to this, compounds in which the affinity for the endothelin receptor is high and the maximum constriction is high are agonists.

[1] = system: porcine coronary smooth muscles (constriction due to endothelin-1); test: Assay of constriction suppressing activity to porcine coronary smooth muscles; format: cell-based; settings: Sample: constriction due to 10^-9 M ET-1 in the presence of 10^-5 sample; Control: constriction due to 10^-9 M ET-1; formula shown only as drawing 9
Description: Its tension was detected by a force displacement transducer UL-10GR (Minebea), and recorded by a polygraph (NEC Sanei). […] A tension of 1.25 to 1.5 g was applied to each of the strips, followed by equilibration for 1.5 hours. 60 mM KCl was repeatedly applied thereto at intervals of 30 minutes until the constriction response became constant. After additional equilibration for 1.5 hours, a sample for assay was given. The constriction of the strips was normalized by the constriction response of the individual strips to 60 mM KCl and statistically processed.

porcine coronary artery = format: cell-based; settings: for Constrictor activity (Relative potency): ET-1 = 100; for Maximum Constriction (% 60 mM KCl): normalized to constriction response to 60 mM KCl
Description: Each of helical strips 2 mm×15 mm prepared from the coronary right ramus circumflexus from which the adventitial connective tissues and the endothelial cells were removed was set to each of 4 ml organ baths. Its tension was detected by a force displacement transducer UL-10GR (Minebea), and recorded by a polygraph (NEC Sanei). The organ baths were maintained at 37° C., and filled with a Krebs-Henseleit solution (composition:118 mM NaCl, 4.7 mM KCl, 2.5 mM CaCl2, 1.2 mM KH2 PO4, 25.0 mM NaHCO3, 1.2 mM MgSO4, 10.0 mM glucose) gassed with 95% O2 and 5% CO2.
A tension of 1.25 to 1.5 g was applied to each of the strips, followed by equilibration for 1.5 hours. 60 mM KCl was repeatedly applied thereto at intervals of 30 minutes until the constriction response became constant. After additional equilibration for 1.5 hours, a sample for assay was given. The constriction of the strips was normalized by the constriction response of the individual strips to 60 mM KCl and statistically processed.
(2) As to the antagonist property or the agonist property of the peptide derivatives of present invention to endothelin, the affinity for an endothelin receptor and the constrictor activity to porcine coronary smooth muscles (according to the method described in (1) described above) were assayed. The affinity for the receptor was assayed by the following method.

| Receptor binding activity (Relative potency) (endothelin receptor) | Compound | Suppressing activity to ET-1 [1] | Constrictor activity (Relative potency) (porcine coronary artery) | Maximum Constriction (% 60 mM KCl) (porcine coronary artery) |
| --- | --- | --- | --- | --- |
| 0.5 | CC[C@H](C)[C@H](NC(=O)[C@H](CC(=O)O)NC(=O)[C@H](CC(C)C)NC(=O)[C@H](Cc1c[nH]cn1)NC(=O)[C@@H]1CSSC[C@H](N)C(=O)N[C@@H](CO)C(=O)N[C@@H](Cc2ccccc2)C(=O)N[C@@H](CO)C(=O)N[C@@H](CO)C(=O)N[C@@H](CC(C)C)C(=O)N[C@@H](CCSC)C(=O)N[C@@H](CC(=O)O)C(=O)N[C@@H](CCCCN)C(=O)N[C@@H](CCC(=O)O)C(=O)N[C@@H](C)C(=O)N[C@@H](C(C)C)C(=O)N[C@@H](Cc2ccc(O)cc2)C(=O)N[C@@H](Cc2ccccc2)C(=O)N1)C(=O)N[C@H](C(=O)N[C@@H](Cc1c[nH]c2ccccc12)C(=O)O)[C@@H](C)CC [Example 2, [Phe^3, Ala^11]-ET-1] (H-CSFSSLMDKEAVYFCHLDIIW-OH; disulfide 1-15) | 87 | < 0.1 | 10 |
| 100 | CC[C@H](C)[C@H](NC(=O)[C@@H](NC(=O)[C@H](CC(C)C)NC(=O)[C@H](Cc1c[nH]cn1)NC(=O)[C@@H]1CSSC[C@H](N)C(=O)N[C@@H](CO)C(=O)N[C@H]2CSSC[C@H](NC(=O)[C@H](CCC(=O)O)NC(=O)[C@H](CCCCN)NC(=O)[C@H](CC(=O)O)NC(=O)[C@H](CCSC)NC(=O)[C@H](CC(C)C)NC(=O)[C@H](CO)NC(=O)[C@H](CO)NC2=O)C(=O)N[C@@H](C(C)C)C(=O)N[C@@H](Cc2ccc(O)cc2)C(=O)N[C@@H](Cc2ccccc2)C(=O)N1)[C@@H](C)O)C(=O)N[C@H](C(=O)N[C@@H](Cc1c[nH]c2ccccc12)C(=O)O)[C@@H](C)CC [Example 51, [Thr^18]-ET-1] (H-CSCSSLMDKECVYFCHLTIIW-OH; disulfide 1-15, 3-11) |  | 26 | 76 |
| 0.35 | CC[C@H](C)[C@H](NC(=O)[C@H](CC(=O)O)NC(=O)[C@H](CC(C)C)NC(=O)[C@H](Cc1c[nH]cn1)NC(=O)[C@@H]1CSSC[C@H](N)C(=O)N[C@@H](CO)C(=O)N[C@@H](CC(C)C)C(=O)N[C@@H](CO)C(=O)N[C@@H](CO)C(=O)N[C@@H](CC(C)C)C(=O)N[C@@H](CCSC)C(=O)N[C@@H](CC(=O)O)C(=O)N[C@@H](CCCCN)C(=O)N[C@@H](CCC(=O)O)C(=O)N[C@@H](C)C(=O)N[C@@H](C(C)C)C(=O)N[C@@H](Cc2ccc(O)cc2)C(=O)N[C@@H](Cc2ccccc2)C(=O)N1)C(=O)N[C@H](C(=O)N[C@@H](Cc1c[nH]c2ccccc12)C(=O)O)[C@@H](C)CC [Example 52, [Leu^3, Ala^11]-ET-1] (H-CSLSSLMDKEAVYFCHLDIIW-OH; disulfide 1-15) |  | < 0.1 | 6 |

More lines, now with the values behind:

| Compound | Receptor binding activity (Relative potency) (endothelin receptor) | Suppressing activity to ET-1 [1] | Constrictor activity (Relative potency) (porcine coronary artery) | Maximum Constriction (% 60 mM KCl) (porcine coronary artery) |
| --- | --- | --- | --- | --- |
| CC[C@H](C)[C@H](NC(=O)[C@H](CC(=O)O)NC(=O)[C@H](CC(C)C)NC(=O)[C@H](Cc1c[nH]cn1)NC(=O)[C@@H]1CSSC[C@H](N)C(=O)N[C@@H](CO)C(=O)N[C@@H](Cc2ccccc2)C(=O)N[C@@H](CO)C(=O)N[C@@H](CO)C(=O)N[C@@H](CC(C)C)C(=O)N[C@@H](CCSC)C(=O)N[C@@H](CC(=O)O)C(=O)N[C@@H](CCCCN)C(=O)N[C@@H](CCC(=O)O)C(=O)N[C@@H](Cc2ccccc2)C(=O)N[C@@H](C(C)C)C(=O)N[C@@H](Cc2ccc(O)cc2)C(=O)N[C@@H](Cc2ccccc2)C(=O)N1)C(=O)N[C@H](C(=O)N[C@@H](Cc1c[nH]c2ccccc12)C(=O)O)[C@@H](C)CC [Example 1, [Phe^3,11]-ET-1] (H-CSFSSLMDKEFVYFCHLDIIW-OH; disulfide 1-15) | 0.45 | 77 | < 0.3 | 9 |
| CC[C@H](C)[C@H](NC(=O)[C@H](CC(=O)O)NC(=O)[C@H](CC(C)C)NC(=O)[C@H](Cc1c[nH]cn1)NC(=O)[C@@H]1CSSC[C@H](N)C(=O)N[C@@H](CO)C(=O)N[C@@H](C)C(=O)N[C@@H](CO)C(=O)N[C@@H](CO)C(=O)N[C@@H](CC(C)C)C(=O)N[C@@H](CCSC)C(=O)N[C@@H](CC(=O)O)C(=O)N[C@@H](CCCCN)C(=O)N[C@@H](CCC(=O)O)C(=O)N[C@@H](Cc2ccccc2)C(=O)N[C@@H](C(C)C)C(=O)N[C@@H](Cc2ccc(O)cc2)C(=O)N[C@@H](Cc2ccccc2)C(=O)N1)C(=O)N[C@H](C(=O)N[C@@H](Cc1c[nH]c2ccccc12)C(=O)O)[C@@H](C)CC [Example 3, [Ala^3, Phe^11]-ET-1] (H-CSASSLMDKEFVYFCHLDIIW-OH; disulfide 1-15) | 0.1 | 56 | < 0.1 | 10 |
| [Asn^18 ]-ET-1 (CSCSSLMDKECVYFCHLNIIW; ends and bridges not checked; cysteine pairing not given here; UniProt P05305 53-73, looked up, variant D18N) [Example 35] | 9.1 |  | < 0.1 | 43 |
| [Trp^3,11 ]-ET-1 (CSWSSLMDKEWVYFCHLDIIW; ends and bridges not checked; cysteine pairing not given here; UniProt P05305 53-73, looked up, variant C3W C11W) [Example 4] | 0.27 |  | < 0.1 | 10 |
| [Val^3,Ala^11 ]-ET-1 (CSVSSLMDKEAVYFCHLDIIW; ends and bridges not checked; cysteine pairing not given here; UniProt P05305 53-73, looked up, variant C3V C11A) [Example 41] | 4.5 |  | 73 | 130 |
